The values that follow are results of earlier work, collected in patent US20090247493A1, “Regimens for Treatment of Conditions Related to Estrogen Deficiency” (Duramed Pharmaceuticals, Inc., priority 2006, published 2009).

SMILES strings stand for the structures.

For this data set the following is noted: in a contraceptive regimen.

As to `C#C[C@]1(O)CC[C@H]2[C@@H]3CCc4cc(OC)ccc4[C@H]3CC[C@@]21C` [mestranol], the “dose roughly equivalent to 30 μg of ethinyl estradiol” value is “about 60 μg”.
For the compound `C[C@]12CC[C@@H]3c4ccc(O)cc4CC[C@H]3[C@@H]1CC[C@@H]2O` [17β-estradiol], the “dose roughly equivalent to 30 μg of ethinyl estradiol” value is on record as “about 2,000 μg”.
